# Laboratory results published in patent US7396837B2, “Antitumoral analogs of lamellarins” (Pharma Mar, S.A.U., priority 2002, dated 2008).
# Like-named read-outs stand apart in the source and are kept apart here.
# Key:
# [1] = system: PANC-1; assay: SRB colorimetric cell growth inhibition assay, PANC-1; type: cell-based; details: Homo sapiens; for CC50 / IC (TGI): PANC-1, PANC-1; for CC50: LC=cell killing (cytotoxic effect), read-out: LC50 PANC-1; for IC (TGI): TGI=total growth inhibition (cytostatic effect), read-out: TGI PANC-1; for GI50: PANC-1, GI=growth inhibition, read-out: GI50 PANC-1
# Summary of the method: (§1)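 Sulforhodamine B colorimetric readout measured cell growth and viability after continuous compound exposure of human cancer cell lines in 96-well plates. Triplicate wells gave mean ± SD, from which growth inhibition (GI), cytostatic total growth inhibition (TGI) and cytotoxic cell killing (LC) were calculated.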
# [2] = system: LoVo; assay: SRB colorimetric cell growth inhibition assay, LoVo; type: cell-based; details: Homo sapiens; for CC50: LoVo, LC=cell killing (cytotoxic effect), read-out: LC50 LOVO; for GI50 / IC (TGI): LOVO; for GI50: GI=growth inhibition, read-out: GI50 LOVO; for IC (TGI): TGI=total growth inhibition (cytostatic effect), read-out: TGI LOVO
# Summary of the method: as §1
# [3] = system: LNCaP; assay: SRB colorimetric cell growth inhibition assay, LNCaP; type: cell-based; details: Homo sapiens, LNCaP, LN-caP; for GI50: GI=growth inhibition, read-out: GI50 LN-caP; for CC50: read-out: LC50 LN-caP; for IC (TGI): total growth inhibition (cytostatic effect), read-out: TGI LN-caP
# Summary of the method: as §1
# [4] = system: IGROV; assay: SRB colorimetric cell growth inhibition assay, IGROV; type: cell-based; details: Homo sapiens, IGROV; for CC50: read-out: LC50 IGROV; for GI50: GI=growth inhibition, read-out: GI50 IGROV; for IC (TGI): total growth inhibition (cytostatic effect), read-out: TGI IGROV
# Summary of the method: as §1
# [5] = target: T1, human topoisomerase I (Homo sapiens, UniProt P11387); assay: Topoisomerase I DNA relaxation assay (supercoiled plasmid DNA); type: biochemical; details: supercoiled plasmid DNA, each compound tested at 1 μM, agarose gel with ethidium bromide
# T1 sequence (P11387 1-765): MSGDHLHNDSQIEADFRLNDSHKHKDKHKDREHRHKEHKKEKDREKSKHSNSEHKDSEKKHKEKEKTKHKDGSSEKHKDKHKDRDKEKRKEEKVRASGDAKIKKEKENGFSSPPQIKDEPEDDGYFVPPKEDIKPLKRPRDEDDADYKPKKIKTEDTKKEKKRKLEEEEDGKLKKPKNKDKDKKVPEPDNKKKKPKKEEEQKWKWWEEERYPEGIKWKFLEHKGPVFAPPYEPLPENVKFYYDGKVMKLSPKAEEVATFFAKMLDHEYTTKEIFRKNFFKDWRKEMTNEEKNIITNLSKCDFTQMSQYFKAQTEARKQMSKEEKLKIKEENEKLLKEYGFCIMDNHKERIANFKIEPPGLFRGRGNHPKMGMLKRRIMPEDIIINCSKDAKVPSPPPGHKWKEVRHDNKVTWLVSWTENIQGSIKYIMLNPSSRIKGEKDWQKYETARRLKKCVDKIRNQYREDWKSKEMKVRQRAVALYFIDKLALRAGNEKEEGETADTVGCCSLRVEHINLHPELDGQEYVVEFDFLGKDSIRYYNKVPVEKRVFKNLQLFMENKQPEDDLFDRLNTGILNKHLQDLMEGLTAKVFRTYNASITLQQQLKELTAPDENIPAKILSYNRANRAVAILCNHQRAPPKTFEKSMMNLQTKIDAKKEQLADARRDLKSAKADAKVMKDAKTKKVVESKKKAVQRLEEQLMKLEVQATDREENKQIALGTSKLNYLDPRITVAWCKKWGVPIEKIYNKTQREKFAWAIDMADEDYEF
# Summary of the method: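 Test compounds (1 μM each) were present during topoisomerase I relaxation of supercoiled plasmid DNA. Relaxation was assessed on ethidium bromide-stained agarose gels.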
# [6] = system: HT-29; assay: SRB colorimetric cell growth inhibition assay, HT-29; type: cell-based; details: Homo sapiens; for CC50: HT-29, HT-29, LC=cell killing (cytotoxic effect), read-out: LC50 HT-29; for GI50 / IC (TGI): HT-29; for GI50: GI=growth inhibition, read-out: GI50 HT-29; for IC (TGI): TGI=total growth inhibition (cytostatic effect), read-out: TGI HT-29
# Summary of the method: as §1
# [7] = system: A-549; assay: SRB colorimetric cell growth inhibition assay, A-549; type: cell-based; details: Homo sapiens, A549, A-549; for GI50: GI=growth inhibition, read-out: GI50 A-549; for CC50: LC=cell killing (cytotoxic effect), read-out: LC50 A-549; for IC (TGI): TGI=total growth inhibition (cytostatic effect), read-out: TGI A-549
# Summary of the method: as §1
# [8] = system: SK-MEL-28; assay: SRB colorimetric cell growth inhibition assay, SK-MEL-28; type: cell-based; details: Homo sapiens, SK-MEL-28, MEL-28; for GI50: GI=growth inhibition, read-out: GI50 MEL-28; for CC50: read-out: LC50 MEL-28; for IC (TGI): total growth inhibition (cytostatic effect), read-out: TGI MEL-28
# Summary of the method: as §1
# [9] = system: K-562; assay: SRB colorimetric cell growth inhibition assay, K-562; type: cell-based; details: Homo sapiens, K562, K-562; for GI50: GI=growth inhibition, read-out: GI50 K-562; for CC50: LC=cell killing (cytotoxic effect), read-out: LC50 K-562; for IC (TGI): TGI=total growth inhibition (cytostatic effect), read-out: TGI K-562
# Summary of the method: as §1
# [10] = system: SKOV-3; assay: SRB colorimetric cell growth inhibition assay, SKOV-3; type: cell-based; details: Homo sapiens; for GI50: SK-OV-3, SKOV-3, GI=growth inhibition, read-out: GI50 SKOV-3; for IC (TGI): total growth inhibition (cytostatic effect), read-out: TGI SKOV-3
# Summary of the method: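 Growth inhibition (GI), total growth inhibition (TGI, cytostatic) and lethal concentration (LC, cytotoxic) come from an SRB-based colorimetric measure of growth and viability. Data are triplicate-well means ± SD.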
# [11] = system: LoVo-Dox; assay: SRB colorimetric cell growth inhibition assay, LoVo-Dox (MDR); type: cell-based; details: Homo sapiens, LOVO-DOX; for GI50: GI=growth inhibition, read-out: GI50 LOVO-DOX; for CC50: LC=cell killing (cytotoxic effect), read-out: LC50 LOVO-DOX; for IC (TGI): TGI=total growth inhibition (cytostatic effect), read-out: TGI LOVO-DOX
# Summary of the method: as §1
# [12] = system: DU-145; assay: SRB colorimetric cell growth inhibition assay, DU-145; type: cell-based; details: Homo sapiens; for CC50: DU-145, DU-145, read-out: LC50 DU-145; for GI50 / IC (TGI): DU-145; for GI50: GI=growth inhibition, read-out: GI50 DU-145; for IC (TGI): total growth inhibition (cytostatic effect), read-out: TGI DU-145
# Summary of the method: as §1
# [13] = system: SK-BR-3; assay: SRB colorimetric cell growth inhibition assay, SK-BR-3; type: cell-based; details: Homo sapiens; for CC50: SK-BR-3, SK-BR-3, read-out: LC50 SK-BR-3; for GI50 / IC (TGI): SK-BR-3; for GI50: GI=growth inhibition, read-out: GI50 SK-BR-3; for IC (TGI): total growth inhibition (cytostatic effect), read-out: TGI SK-BR-3
# Summary of the method: as §1
# [14] = system: IGROV-ET; assay: SRB colorimetric cell growth inhibition assay, IGROV-ET (ET-743 resistant); type: cell-based; details: Homo sapiens, IGROV-ET; for GI50: GI=growth inhibition, read-out: GI50 IGROV-ET; for CC50: read-out: LC50 IGROV-ET; for IC (TGI): total growth inhibition (cytostatic effect), read-out: TGI IGROV-ET
# Summary of the method: as §1
# [15] = LC=cell killing (cytotoxic effect)
# [16] = cell killing (cytotoxic effect)
Compound,CC50 [1] [µM],IC (TGI) [1] [µM],GI50 [1] [µM],CC50 [2] [µM],GI50 [2] [µM],IC (TGI) [2] [µM],GI50 [3] [µM],IC (TGI) [3] [µM],GI50 [4] [µM],IC (TGI) [4] [µM],stimulation of DNA cleavage by topoisomerase I / inhibition of topoisomerase I (nicked DNA band) in DNA relaxation assay [5],CC50 [6] [µM],GI50 [6] [µM],IC (TGI) [6] [µM],GI50 [7] [µM],CC50 [7] [µM],IC (TGI) [7] [µM],GI50 [8] [µM],IC (TGI) [8] [µM],GI50 [9] [µM],further results
COc1cc(-c2c3c4cc(OC)c(OC(=O)[C@@H](NC(=O)OC(C)(C)C)C(C)C)cc4oc(=O)c3n3ccc4cc(OC(=O)[C@@H](NC(=O)OC(C)(C)C)C(C)C)c(OC)cc4c23)ccc1OC(=O)[C@@H](NC(=O)OC(C)(C)C)C(C)C [Compound 38],9.11,9.11,0.499,9.11,9.11,9.11,0.152,0.509,0.244,1.07,No effect,9.11,0.0324,0.0911,1.34,9.11,4.78,0.165,0.52,0.0413,"CC50 [3, 15]: 3.9 µM; CC50 [4, 15]: 9.11 µM; CC50 [8, 15]: 9.11 µM; CC50 [9]: 9.11 µM; IC (TGI) [9]: 1.15 µM; GI50 [10]: 0.684 µM; IC (TGI) ([10]; SK-OV-3, SKOV-3): 7.42 µM; GI50 [11]: 9.11 µM; CC50 [11]: 9.11 µM; IC (TGI) [11]: 9.11 µM; CC50 [12, 15]: 9.11 µM; GI50 [12]: 0.0512 µM; IC (TGI) [12]: 9.11 µM; CC50 [13, 15]: 9.11 µM; GI50 [13]: 0.448 µM; IC (TGI) [13]: 4.08 µM; GI50 [14]: 1.29 µM; CC50 [14, 15]: 9.11 µM; IC (TGI) [14]: 4.51 µM"
COc1cc(-c2c3n(c4c(=O)oc5cc(OC(=O)[C@H](NC(=O)OC(C)(C)C)C(C)C)c(OC)cc5c24)CCc2cc(OC(=O)[C@H](NC(=O)OC(C)(C)C)C(C)C)c(OC)cc2-3)ccc1OC(=O)[C@H](NC(=O)OC(C)(C)C)C(C)C [Compound 34],9.1,0.992,0.301,9.1,0.84,4.02,0.461,1.57,0.307,2.11,No effect,9.1,1.16,5.39,1.47,9.1,3.71,1.36,2.76,1.04,"CC50 [3, 16]: 4.11 µM; CC50 [4, 16]: 8.74 µM; CC50 [8, 16]: 5.58 µM; CC50 [9]: 6.62 µM; IC (TGI) [9]: 2.61 µM; GI50 [10]: 1.27 µM; LC50 (concentration causing 50% net cell killing) ([10]; SK-OV-3, SKOV-3, cell killing (cytotoxic effect), read-out: LC50 SKOV-3): 6.65 µM; IC (TGI) ([10]; SK-OV-3, SKOV-3): 2.91 µM; GI50 [11]: 9.1 µM; CC50 [11]: 9.1 µM; IC (TGI) [11]: 9.1 µM; CC50 [12, 16]: 6.5 µM; GI50 [12]: 0.196 µM; IC (TGI) [12]: 0.588 µM; CC50 [13, 16]: 8.95 µM; GI50 [13]: 1.18 µM; IC (TGI) [13]: 3.25 µM; GI50 [14]: 2.07 µM; CC50 [14, 16]: 9.1 µM; IC (TGI) [14]: 4.63 µM"
